# Data from ChEMBL document CHEMBL3751673, “Illuminating the binding interactions of galactonoamidines during the inhibition of β-galactosidase (E. coli)” (Bioorg Med Chem, 2016).
# Target: Beta-galactosidase (Escherichia coli, UniProt Q8VNN2)
# Experiment: Competitive inhibition of Escherichia coli beta-galactosidase assessed as p-nitrophenyl-beta-D-galactopyranoside substrate hydrolysis by UV/Vis spectroscopy
# Beta-galactosidase, sequence (Q8VNN2 whole entry): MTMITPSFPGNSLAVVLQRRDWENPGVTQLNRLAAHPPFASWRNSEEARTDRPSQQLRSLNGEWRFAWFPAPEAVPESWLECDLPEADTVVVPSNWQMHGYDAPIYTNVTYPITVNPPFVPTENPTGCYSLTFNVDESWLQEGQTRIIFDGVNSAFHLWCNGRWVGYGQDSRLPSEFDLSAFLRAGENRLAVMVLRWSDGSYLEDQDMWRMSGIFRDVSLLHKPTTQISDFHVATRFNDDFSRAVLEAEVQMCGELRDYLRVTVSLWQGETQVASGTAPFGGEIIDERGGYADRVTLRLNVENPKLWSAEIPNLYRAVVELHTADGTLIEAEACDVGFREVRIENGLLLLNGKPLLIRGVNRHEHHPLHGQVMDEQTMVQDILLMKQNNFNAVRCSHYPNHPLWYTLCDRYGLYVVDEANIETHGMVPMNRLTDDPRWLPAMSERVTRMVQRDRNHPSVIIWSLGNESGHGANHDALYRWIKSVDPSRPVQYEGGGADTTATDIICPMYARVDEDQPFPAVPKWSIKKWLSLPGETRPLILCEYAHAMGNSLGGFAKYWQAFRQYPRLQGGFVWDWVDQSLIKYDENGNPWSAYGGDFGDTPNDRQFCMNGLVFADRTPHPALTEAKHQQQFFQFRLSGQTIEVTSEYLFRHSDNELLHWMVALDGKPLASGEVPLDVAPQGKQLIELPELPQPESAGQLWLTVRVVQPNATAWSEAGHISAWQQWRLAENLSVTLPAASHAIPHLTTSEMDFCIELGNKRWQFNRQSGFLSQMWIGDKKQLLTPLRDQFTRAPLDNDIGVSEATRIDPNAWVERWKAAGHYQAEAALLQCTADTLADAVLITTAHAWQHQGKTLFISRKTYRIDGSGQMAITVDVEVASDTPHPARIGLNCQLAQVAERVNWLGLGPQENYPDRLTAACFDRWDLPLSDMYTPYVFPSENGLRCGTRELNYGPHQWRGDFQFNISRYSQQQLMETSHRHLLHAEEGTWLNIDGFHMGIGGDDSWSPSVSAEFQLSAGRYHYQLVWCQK
row,Compound,Ki [nM]
1,Cc1ccc(C/N=C2\N[C@H](CO)[C@H](O)[C@H](O)[C@H]2O)cc1,0.06
2,Cc1ccc(CNC2=N[C@H](CO)[C@H](O)[C@H](O)C2)cc1,1.3
3,CO[C@@H]1[C@H](O)[C@@H](O)C(NCc2ccc(C)cc2)=N[C@@H]1CO,32
4,CO[C@H]1C(NCc2ccc(C)cc2)=N[C@H](CO)[C@H](O)[C@@H]1O,42
